Experimental data published in patent US5428059A, “Benzopyran derivatives and an anti-allergic agent possessing the same as the active ingredient” (Dainippon Ink & Chemicals, Inc., priority 1991, dated 1995).

system: not listed separately; test: Mouse Acute Toxicity Assay (oral, 7 days observation); details: in vivo, ICR-type male mice, single forced oral administration 1000 and 2000 mg/kg, estimated from survival ratio
Method: Mouse Acute Toxicity Assay
The present Example was carried out in order to confirm the safety of the novel compound according to the present invention. In the following the assay method used will be explained.
Assay method: After ICR-type male mice (body weight=20~25 g) were fasted for 16 hours, each substance to be tested was forcibly administered orally at 1000 mg/kg and 2000 mg/kg to groups of five mice, using a esophageal sound. After administration, the mice were kept in cages for seven days, following which observations were made on the general conditions and existence of dead animals. From the survival ratio of the mice at the end of the observation, the lethal dose 50 (LD50) was estimated.
The results of the mouse acute toxicity assay are recorded in Tables 1 and 2.

Structure (SMILES)	LD50 at 168 h
CC(=O)Oc1ccc2oc(=O)c(OC/C=C(\C)CCC=C(C)C)c(O)c2c1 [Compound 271, 3-(geranyloxy)-4-hydroxy-6-(acetoxy)-2H-1-benzopyran-2-one]	> 1000 mg/kg
COc1c(O)c2cc(OC(C)=O)ccc2oc1=O [Compound 270, 3-(methoxy)-4-hydroxy-6-(acetoxy)-2H-1-benzopyran-2-one]	> 2000 mg/kg
CC(C)=CCC/C(C)=C/COc1c(O)c2cc(O)ccc2oc1=O [Compound 269, 4,6-(dihydroxy)-3-(geranyloxy)-2H-1-benzopyran-2-one]	> 1000 mg/kg
CC(C)=CCC/C(C)=C/COc1ccc2oc(=O)c(O)c(O)c2c1 [Compound 280, 3,4-(dihydroxy)-6-(geranyloxy)-2H-1-benzopyran-2-one]	> 1000 mg/kg

system: Hartley-type male guinea pigs; test: Guinea Pig Homogeneous Skin Passive Anaphylaxis Assay (PCA reaction); assay type: in vivo, guinea pig (Hartley-type); details: Cavia porcellus, 10 mg/kg oral, 48 h after sensitization, read-out: Allergic reaction inhibitory index (%)
Procedure, shortened: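 Male Hartley guinea pigs (250~300 g) given intradermal back injections of 120-fold-diluted anti-OVA serum; 48 h later test substance dosed orally at 10 mg/kg, then challenged i.v. with OVA plus Evans Blue. Dye-spot area (long × short diameter, mm^2) measured at 30 min; inhibition % calculated against solvent control.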

Structure (SMILES)	inhibition in vivo at 10 mg/kg
CC(=O)Oc1ccc2oc(=O)c(OC/C=C(\C)CCC=C(C)C)c(O)c2c1 [Compound 271, 3-(geranyloxy)-4-hydroxy-6-(acetoxy)-2H-1-benzopyran-2-one]	33%
COc1c(O)c2cc(OC(C)=O)ccc2oc1=O [Compound 270, 3-(methoxy)-4-hydroxy-6-(acetoxy)-2H-1-benzopyran-2-one]	35%
CC(C)=CCC/C(C)=C/COc1c(O)c2cc(O)ccc2oc1=O [Compound 269, 4,6-(dihydroxy)-3-(geranyloxy)-2H-1-benzopyran-2-one]	33%
CCCCCCCCCCOc1cccc2c(OC(C)=O)c(OC/C=C(\C)CCC=C(C)C)c(=O)oc12 [Compound 153, 3-(geranyloxy)-4-(acetoxy)-8-(decyloxy)-2H-1-benzopyran-2-one]	30%
COc1c(OC(C)C)c2c(OC)cccc2oc1=O [Compound 200, 3,5-(dimethoxy)-4-(isopropoxy)-2H-1-benzopyran-2-one]	30%
CC(=O)Oc1c(OC(C)=O)c2c(OC(C)=O)cccc2oc1=O [Compound 179, 3,4,5-(triacetoxy)-2H-1-benzopyran-2-one]	32%
CC(C)=CCC/C(C)=C/COc1ccc2oc(=O)c(O)c(O)c2c1 [Compound 280, 3,4-(dihydroxy)-6-(geranyloxy)-2H-1-benzopyran-2-one]	35%
CCCCCCCCCCOc1ccc2c(OC/C=C(\C)CCC=C(C)C)c(OC(=O)c3ccccc3)c(=O)oc2c1 [Compound 70, 3-(benzoyloxy)-4-(geranyloxy)-7-(decyloxy)-2H-1-benzopyran-2-one]	30%
CCCCCCCCCCOc1cccc2c(OC(=O)c3ccccc3)c(OC)c(=O)oc12 [Compound 150, 3-(methoxy)-4-(benzoyloxy)-8-(decyloxy)-2H-1-benzopyran-2-one]	34%
CC(C)=CCC/C(C)=C/COc1cccc2c(O)c(OC(=O)c3ccccc3)c(=O)oc12 [Compound 158, 3-(benzoyloxy)-4-hydroxy-8-(geranyloxy)-2H-1-benzopyran-2-one]	30%
CC(=O)Oc1c(OC(C)=O)c2c(OC(C)C)cccc2oc1=O [Compound 213, 3,4-(diacetoxy)-5-(isopropoxy)-2H-1-benzopyran-2-one]	33%
CC(C)Oc1cccc2oc(=O)c(O)c(OC(C)C)c12 [Compound 215, 3-hydroxy-4,5-(diisopropoxy)-2H-1-benzopyran-2-one]	34%
CCCCCCCCCCOc1c(O)c(=O)oc2ccc(O)cc12 [Compound 268, 3,6-(dihydroxy)-4-(decyloxy)-2H-1-benzopyran-2-one]	33%
CC(C)Oc1c(OC(=O)c2ccccc2)c2ccc(O)cc2oc1=O [Compound 13, 3-(isopropoxy)-4-(benzoyloxy)-7-hydroxy-2H-1-benzopyran-2-one]	32%
CC(C)=CCC/C(C)=C/COc1c(O)c2ccc(O)cc2oc1=O [Compound 19, 3-(geranyloxy)-4,7-(dihydroxy)-2H-1-benzopyran-2-one]	42%
COc1cccc2c(OC/C=C(\C)CCC=C(C)C)c(OC(C)=O)c(=O)oc12 [Compound 123, 3-(acetoxy)-4-(geranyloxy)-8-(methoxy)-2H-1-benzopyran-2-one]	34%
O=c1oc2cccc(O)c2c(O)c1O [Compound 177, 3,4,5-trihydroxy-2H-1-benzopyran-2-one]	37%

Structure (SMILES)	inhibition in vivo at 10 mg/kg
CCCCCCCCCCOc1ccc2oc(=O)c(O)c(OC)c2c1 [Compound 277, 3-(hydroxy)-4-(methoxy)-6-(decyloxy)-2H-1-benzopyran-2-one]	35%
COc1ccc2c(OC(=O)c3ccccc3)c(OC)c(=O)oc2c1 [Compound 30, 3,7-(dimethoxy)-4-(benzoyloxy)-2H-1-benzopyran-2-one]	31%
CCCCCCCCCCOc1cccc2oc(=O)c(OC(C)=O)c(OC(=O)c3ccccc3)c12 [Compound 232, 3-(acetoxy)-4-(benzoyloxy)-5-(decyloxy)-2H-1-benzopyran-2-one]	32%
COc1c(OC(C)C)c2ccc(O)cc2oc1=O [Compound 18, 3-(methoxy)-4-(isopropoxy)-7-hydroxy-2H-1-benzopyran-2-one]	30%
CC(=O)Oc1c(O)c2cc(O)ccc2oc1=O [Compound 264, 3-(acetoxy)-4,6-(dihydroxy)-2H-1-benzopyran-2-one]	36%
CCCCCCCCCCOc1c(OC(=O)c2ccccc2)c2c(O)cccc2oc1=O [Compound 186, 3-(decyloxy)-4-(benzoyloxy)-5-hydroxy-2H-1-benzopyran-2-one]	32%
COc1cccc2c(OC(=O)c3ccccc3)c(OC(C)C)c(=O)oc12 [Compound 119, 3-(isopropoxy)-4-(benzoyloxy)-8-(methoxy)-2H-1-benzopyran-2-one]	30%
COc1ccc2c(OC(C)C)c(OC/C=C(\C)CCC=C(C)C)c(=O)oc2c1 [Compound 41, 3-(geranyloxy)-4-(isopropoxy)-7-(methoxy)-2H-1-benzopyran-2-one]	30%
CCCCCCCCCCOc1c(OC(C)=O)c(=O)oc2cc(O)ccc12 [Compound 12, 3-(acetoxy)-4-(decyloxy)-7-hydroxy-2H-1-benzopyran-2-one]	30%
CC(C)=CCC/C(C)=C/COc1c(OC/C=C(\C)CCC=C(C)C)c2ccc(OC(C)C)cc2oc1=O [Compound 57, 3,4-(digeranyloxy)-7-(isopropoxy)-2H-1-benzopyran-2-one]	30%
COc1ccc2c(OC(C)=O)c(O)c(=O)oc2c1 [Compound 31, 3-hydroxy-4-(acetoxy)-7-(methoxy)-2H-1-benzopyran-2-one]	38%
CC(C)Oc1c(O)c(=O)oc2c(OC(C)C)cccc12 [Compound 134, 3-hydroxy-4,8-(disopropoxy)-2H-1-benzopyran-2-one]	30%
CCCCCCCCCCOc1c(OC(C)=O)c(=O)oc2c(OC)cccc12 [Compound 118, 3-(acetoxy)-4-(decyloxy)-8-(methoxy)-2H-1-benzopyran-2-one]	32%
CCCCCCCCCCOc1cccc2c(OC)c(OC/C=C(\C)CCC=C(C)C)c(=O)oc12 [Compound 155, 3-(geranyloxy)-4-(methoxy)-8-(decyloxy)-2H-1-benzopyran-2-one]	30%
CC(=O)Oc1c(OC/C=C(\C)CCC=C(C)C)c(=O)oc2c(OC(C)=O)cccc12 [Compound 105, 3-(geranyloxy)-4,8-(diacetoxy)-2H-1-benzopyran-2-one]	30%
CCCCCCCCCCOc1cccc2c(OC/C=C(\C)CCC=C(C)C)c(OC(=O)c3ccccc3)c(=O)oc12 [Compound 154, 3-(benzoyloxy)-4-(geranyloxy)-8-(decyloxy)-2H-1-benzopyran-2-one]	31%
CCCCCCCCCCOc1cccc2oc(=O)c(O)c(OCCCC)c12 [Compound 234, 3-hydroxy-4-(butoxy)-5-(decyloxy)-2H-1-benzopyran-2-one]	33%

same assay, conditions: Cavia porcellus, positive control, 100 mg/kg oral, 48 h after sensitization, read-out: Allergic reaction inhibitory index (%)

Structure (SMILES)	inhibition in vivo at 100 mg/kg
COc1ccc(/C=C/C(=O)Nc2ccccc2C(=O)O)cc1OC [Tranilast, reference compound]	52%

same assay, conditions: oral

Structure (SMILES)	anti-allergic action, compounds of the invention (10 mg/kg) versus Tranilast (100 mg/kg)
COc1ccc(/C=C/C(=O)Nc2ccccc2C(=O)O)cc1OC [Tranilast, reference compound]	approximately equal to or less than the anti-allergic action exhibited by the compounds of the present invention

system: mice; test: not given; details: Tranilast, background; cited from earlier work

Structure (SMILES)	acute toxic value (LD50)
COc1ccc(/C=C/C(=O)Nc2ccccc2C(=O)O)cc1OC [Tranilast, reference compound]	680 to 780 mg/kg

same assay, conditions: male mice, Tranilast; cited from earlier work

Structure (SMILES)	LD50
COc1ccc(/C=C/C(=O)Nc2ccccc2C(=O)O)cc1OC [Tranilast, reference compound]	780 mg/kg

system: not given; test: not given; details: oral administration; cited from earlier work

Structure (SMILES)	absorption into the living body
O=C(O)c1cc(=O)c2c(OCC(O)COc3cccc4oc(C(=O)O)cc(=O)c34)cccc2o1 [Disodium Cromoglicate]	difficult to absorb
